Experimental data taken from patent US20250136607A1 (REGOR PHARMACEUTICALS, INC., priority 2021, published 2025).
Read-outs that look alike come from different tables or passages of the source.

Tests used:
[1] = target: Protein arginine deiminase 4 (PAD4) (Homo sapiens, UniProt Q9UM07); experiment: PAD4 ammonia release assay; type: biochemical; conditions: for IC50: PAD4 ammonia release assay, BAEE substrate, 60 min at RT, read-out: Average IC50 Abs; for relative potency of separated isomers in the PAD4 biochemical assay: SFC-separated stereoisomer pairs
Sequence of Protein arginine deiminase 4 (PAD4) (Q9UM07 whole entry): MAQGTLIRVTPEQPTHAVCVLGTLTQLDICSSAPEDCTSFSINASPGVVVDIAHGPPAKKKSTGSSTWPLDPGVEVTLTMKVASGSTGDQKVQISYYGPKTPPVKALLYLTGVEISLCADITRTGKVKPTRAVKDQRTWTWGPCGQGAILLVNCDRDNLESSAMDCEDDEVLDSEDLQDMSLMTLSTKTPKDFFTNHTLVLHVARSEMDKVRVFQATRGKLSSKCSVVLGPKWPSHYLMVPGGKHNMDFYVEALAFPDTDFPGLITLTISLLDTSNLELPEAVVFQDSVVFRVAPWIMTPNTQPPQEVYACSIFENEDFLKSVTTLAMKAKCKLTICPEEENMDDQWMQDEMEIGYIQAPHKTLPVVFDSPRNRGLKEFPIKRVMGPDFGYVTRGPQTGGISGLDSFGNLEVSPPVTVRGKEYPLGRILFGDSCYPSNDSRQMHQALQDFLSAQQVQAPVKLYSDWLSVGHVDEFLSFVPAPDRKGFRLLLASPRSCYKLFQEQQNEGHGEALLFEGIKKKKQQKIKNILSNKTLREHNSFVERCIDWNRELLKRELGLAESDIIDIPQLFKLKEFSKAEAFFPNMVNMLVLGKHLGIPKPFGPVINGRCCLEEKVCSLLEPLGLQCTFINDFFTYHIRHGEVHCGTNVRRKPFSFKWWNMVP
How it was run: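 Ammonia release from BAEE substrate (2× mix 600 μM) was measured after 60 min at RT, following 15 min enzyme–compound preincubation (PAD4 2× 20 nM; pH 8.0 HEPES, 2 mM CaCl2, TCEP; 1.25% DMSO). Detection used OPA/DTT/EDTA for 120 min. % inhibition was taken versus reference-compound and DMSO controls; IC50 by four-parameter logistic fit.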

[2] = tested on: Citrullinated Histone H3 in dHL-60 cells (differentiated HL-60); experiment: dHL-60 Cit-H3 ELISA assay; type: cell-based, human; conditions: read-out: Average IC50 Abs
How it was run: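 HL-60 cells differentiated 72 h with DMF, plated at 1×10^5/well, pretreated 30 min with compound (8-point 3-fold series, 0.2% DMSO), then stimulated 3 h at 37 °C with 25 μM A23187 plus S7 nuclease. Supernatant citrullinated H3 quantified by HRP ELISA at 450 nm; IC50 by four-parameter fit.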

[3] = stimulation with 25 μM A23187 for 3 h
[4] = Homo sapiens, HL-60, 3 h, stimulation with 25 μM A23187 for 3 h

IC50 [1] [µM] | relative potency of separated isomers in the PAD4 biochemical assay [1] | IC50 [2, 3] [µM] | IC50 [2, 4] [µM] | Structure (SMILES) | IC50 ([2]; Homo sapiens, HL-60, stimulation with 25 μM A23187 for 3 h) [µM]
≤ 0.1 | more potent than Example 81 | ≤ 0.1 |  | CCC1CN(CCCO)c2cccc3cc(-c4nc5cc(C(=O)N6C[C@H](N)C[C@@H](F)C6)cc(OC)c5n4C)n1c23 (single isomer, unassigned) [Example 82] | 
> 5 |  | 0.5 to 5 |  | CCC1CN(CCCO)c2cccc3cc(-c4nc5cc(C(=O)N6C[C@H]7CC[C@@H]6[C@@H]7N)cc(OC)c5n4C)n1c23 (single isomer, unassigned) [Example 86] | 
0.1 to 0.5 | more potent than Example 86 | ≤ 0.1 |  | CCC1CN(CCCO)c2cccc3cc(-c4nc5cc(C(=O)N6C[C@H]7CC[C@@H]6[C@@H]7N)cc(OC)c5n4C)n1c23 (single isomer, unassigned) [Example 87] | 
0.1 to 0.5 |  |  | 0.1 to 0.5 | CCC1CN(CCCO)c2cccc3cc(-c4nc5cc(C(=O)N6C[C@H](N)C[C@@H](F)C6)cc(F)c5n4C)n1c23 (stereo partly drawn) [Example 75, ((3R,5R)-3-amino-5-fluoropiperidin-1-yl)(2-(3-ethyl-1-(3-hydroxypropyl)-2,3-dihydro-1H-pyrrolo[1,2,3-de]quinoxalin-5-yl)-7-fluoro-1-methyl-1H-benzo[d]imidazol-5-yl)methanone] | 
0.1 to 0.5 |  |  | 0.1 to 0.5 | C#CCn1c(-c2cc3cccc4c3n2C(CC)CN4CCCO)nc2cc(C(=O)N3C[C@H](N)C[C@@H](F)C3)cc(OC)c21 (stereo partly drawn) [Example 95, ((3R,5R)-3-amino-5-fluoropiperidin-1-yl)(2-(3-ethyl-1-(3-hydroxypropyl)-2,3-dihydro-1H-pyrrolo[1,2,3-de]quinoxalin-5-yl)-7-methoxy-1-(prop-2-yn-1-yl)-1H-benzo[d]imidazol-5-yl)methanone] | 

Structure (SMILES) | IC50 [1] [µM] | relative potency of separated isomers in the PAD4 biochemical assay [1] | IC50 [2, 3] [µM] | IC50 [2, 4] [µM] | IC50 ([2]; Homo sapiens, HL-60, stimulation with 25 μM A23187 for 3 h) [µM]
CCC1CN(CCCO)c2cccc3cc(-c4nc5cc(C(=O)N6C[C@H]7CC[C@@H]6[C@@H]7N)cc(F)c5n4CC)n1c23 (stereo partly drawn) [Example 96, ((1R,4R,7R)-7-amino-2-azabicyclo[2.2.1]heptan-2-yl)(1-ethyl-2-(3-ethyl-1-(3-hydroxypropyl)-2,3-dihydro-1H-pyrrolo[1,2,3-de]quinoxalin-5-yl)-7-fluoro-1H-benzo[d]imidazol-5-yl)methanone] | 0.1 to 0.5 |  |  |  | ≤ 0.1
